Patent US20240196885A1, “INSECT PEST BAIT COMPOSITION WITH ISO[…] METHOD FOR CONTROLLING INSECT PESTS” (SYNGENTA CROP PROTECTION AG, priority 2021, published 2024)

Tests used:
Format in all cases: in vivo
Darkling beetle adults = test: Darkling beetle adult knockdown and mortality after exposure to oat flake bait; conditions: for Mean % knockdown or mortality: adults
Experimental: (§1) Bait preparation. isocyloseram was applied dissolved in acetone to the appropriate insect diet such that the desired a.i. loading was delivered in the diet after the acetone had evaporated. • House fly—granulated sugar • Termites—filter paper • Darkling beetle—oat flakes
(§2) In a suitable arena, 10 insects of each species were exposed to 1 g of the solid baits. Baits were presented in such a way as to minimise the contact exposure. Three replicates of each treatment and species were conducted.
(§3) Insect knockdown was assessed one and three hours after exposure, and mortality after 24 and 48 and 168 hours.

[1] = system: Agrotis ypsilon (Greasy cutworm); test: Protection of corn seedlings from Agrotis ypsilon larvae in field arenas (bait, foliar spray, seed treatment)
Experimental: Trial layout: Arenas of 4 square metres were created in a field with 20 cm high plastic walls to prevent escape of larvae and influx of predators but left to the open air. 3 replicates per trearment were set up. Corn (variety Hightech 2031, conventional non-Bt) was planted at the rate of 30 seeds per arena.
Application method 1: For seed treatment, the seeds were treated with aqueous 40% isocycloseram formulation, such as […]™ (Syngenta Agro S.A.), one day before planting using a standard seed treatment water slurry volume of 50 ml/kg of seed. Four rates of isocycloseram seed treatment were tested 0.3, 0.6, 1.3 and 2.5 mg/seed.
Application method 2: For bait application, dried cobs of maize corn were ground after removal of the seeds to form a coarse granular “corn grit” bait carrier. The corn grit was spread out on a plastic sheet and sprayed with a 40% SC aqueous formulation of isocycloseram mixed with water at the rates of 15, 30 and 60 grams of isocycloseram per 70 kg of corn grit. The baits were then mixed homogeneously and spread by hand in the evening at a rate of 70 kg/ha (7 gr./sqm, or 28 gr./plot) evenly over the soil surface. This was done 4 days after planting, just before emergence of the corn to attract and kill the cutworms at night.
Application method 3: For foliar sprays, a standard hand-held spray-boom with flat-fan nozzles at 600 I/ha was used. The spray was made 1 day after release of the Greasy cutworm larvae at the 2 leaf stage (BBCH 12) of the corn. Three rates were used 30, 60 and 90 grams isocyclseram per hectare
Two check lots were included—both untreated, one with infestation and one without infestation.
Artificial infestation: Laboratory-reared Agrotis ypsilon (Greasy cutworm) larvae at the L5 stage were released into the arenas at a rate of 30 larvae per arena (1 larva per plant) in the morning. This infestation was made Infest 30 L5 larvae into each arena in the morning (1 larva per plant) approx 3 days after seeding just as corn is germinating. Make the application 8-24 hours later.
Assessment: The number of damaged plants per plot was measured at 21 days after the last application (the foliar spray).

[2] = system: Atta bisphaerica (leaf cutter ant); test: Field test for control of leaf cutter ant with pelleted citrus pulp bait; conditions: for control efficiency after opening the nests in the excavation of the anthills: excavation at 155 DAA, modified Abbott formula; for ceased activity in leaf cutting by ants: ninety days after application
Experimental: Bait preparation. Blends of citrus pulp and refined soybean oil (95/5 w/w %) were sprayed with an aqueous isocycloseram suspension concentrate (SC) such as […]™ (Syngenta Agro S.A.), further blended and pelletized. Bait pellets or granules having an isocycloseram a.i. loading of 0.05, 0.1, 0.2 and 0.3%, respectively, were prepared.
The field test for the control of Atta bisphaerica (leaf cutter ant) was conducted with the pelleted isocycloseram citrus pulp bait. The experimental design was completely randomized, with fourteen treatments and 10 replications, following the norms, considering an anthill as repetition. The treatments used were: isocyloseram −0.05% at doses of 6, 10 and 12 g/m^2, isocyloseram […] 0.1% at doses of 6, 10 and 12 g/m^2, isocyloseram −0.2% at doses of 6, 10 and 12 g/m^2, isocyloseram −0.3% at doses of 6, 10 and 12 g/m^2, A commercial standard Mirex-S (sulfluramid) at a dose of 10 g/m^2 and a control (Placebo); commercial product dosages per m^2 of loose earth. The evaluations with 1, 2, 3 and 7 DAA (days after application) included the loading rate parameters (%) (i.e. the % bait applied that is carried into the ant nest), return rate (%) (i.e. the % bait rejected by the colony) and intoxicated ants. As 1, 2, 3, 7, 15, 28, 60, 90, 118 and 155 DAA, the ground removal parameters (%) and leaf cutting and anthill excavation at 155 DAA.
The application of the products was carried out manually, with the aid of a dosing cup, near the scouts and trails of the anthills. The results obtained were submitted to variance analysis, compared by the Scott-Knott test (p≤0.05) and corrected by the modified Abbott formula for control calculation.

Musca domestica = test: Adult house fly knockdown and mortality after exposure to a sugar bait
Experimental: as §1, §2, §3

Darkling beetle larvae [3] = test: Darkling beetle larval knockdown and mortality after exposure to oat flake bait; conditions: larval stage, 100 ppm, after seven days
Darkling beetle larvae [4] = test: as above
Experimental: as §1, §2, §3

[5] = system: Reticulitermes santonensis; test: Termite worker knockdown and mortality after exposure to filter paper bait
Experimental: as §1, §2, §3

[6] = system: German cockroaches, Blattella germanica; test: Cockroach peanut butter bait: donor mortality and secondary kill of recipients; conditions: for Recipient % mortality: recipients exposed to donors of 1% bait, not to the bait
Experimental: Isocycloseram was incorporated into the peanut-butter base by mixing 0.5 ml of a 10000 ppm (1%) solution of the compound in acetone into 0.5 g of peanut butter. The mixture was left in a fume cupboard for 24 hours to allow the acetone to evaporate, leaving […] of compound in 0.5 g of peanut butter, equivalent to 10000 ppm.
Five adult male and five non-gravid adult female German cockroaches, Blattella germanica, were marked with a dot of white paint, to identify them, and placed into a plastic arena approximately 20 cm in diameter. Also placed in each arena was a simple harbourage constructed from concertinaed card and a water source. After the cockroaches had acclimatised for 24 hours a 15 ml glass vial containing 0.5 g of the treated peanut butter bait was added.
After 48 hours the glass vial containing the bait was removed, and an assessment of the cockroach mortality was made. Five adult male and five non-gravid adult female German cockroaches, Blattella germanica, were added to the arena, leaving any dead or alive cockroaches with the white paint mark in the arena.
Mortality of both the marked and unmarked cockroaches was made after 24 and 96 hours.

[7] = system: Agrotis ypsilon (Greasy cutworm); test: Protection of corn seedlings from Agrotis ypsilon larvae in field arenas (bait, foliar spray, seed treatment); remark: listed apart in the source
[8] = 0.1% in oat flake bait, 3 hours
[9] = 0.1% in oat flake bait, 24 hours
[10] = 0.1% in oat flake bait, 48 hours
[11] = 0.1% in oat flake bait, 168 hours
[12] = 1% in oat flake bait, 168 hours

CCN1OCC(NC(=O)c2ccc(C3=NOC(c4cc(Cl)c(F)c(Cl)c4)(C(F)(F)F)C3)cc2C)C1=O (centres unmarked) [isocyloseram, Isocycloseram]
mortality (Darkling beetle adults; adult stage, 100 ppm, after seven days): 100%
Mean % knockdown or mortality (Darkling beetle adults; 0.1% in oat flake bait, 1 hour): 0%
Mean % knockdown or mortality (Darkling beetle adults; [8]): 0%
Mean % knockdown or mortality (Darkling beetle adults; [9]): 0%
Mean % knockdown or mortality (Darkling beetle adults; [10]): 3%
Mean % knockdown or mortality (Darkling beetle adults; [11]): 7%
Mean % knockdown or mortality (Darkling beetle adults; 1% in oat flake bait, 1 hour): 0%
Mean % knockdown or mortality (Darkling beetle adults; 1% in oat flake bait, 3 hours): 0%
Mean % knockdown or mortality (Darkling beetle adults; 1% in oat flake bait, 24 hours): 93%
Mean % knockdown or mortality (Darkling beetle adults; 1% in oat flake bait, 48 hours): 97%
Mean % knockdown or mortality (Darkling beetle adults; [12]): 100%
% reduction of corn damage 22 d after infestation ([1]; Corn Grit Bait 0.42 gai/kg bait, equivalent 30 gai/ha): 94%
% reduction of corn damage 22 d after infestation ([1]; Corn Grit Bait 0.63 gai/kg bait, equivalent 60 gai/ha): 94%
% reduction of corn damage 22 d after infestation ([1]; Corn grit Bait 0.21 gai/kg bait, equivalent 15 gai/ha): 87%
% reduction of corn damage 22 d after infestation ([1]; Foliar spray 30 gai/ha): 37%
% reduction of corn damage 22 d after infestation ([1]; Foliar spray 60 gai/ha): 46%
% reduction of corn damage 22 d after infestation ([1]; Foliar spray 90 gai/ha): 74%
% reduction of corn damage 22 d after infestation ([1]; Seed treatment 0.3 mg ai/seed, equivalent 18 gai/ha): 0%
% reduction of corn damage 22 d after infestation ([1]; Seed treatment 0.6 mg ai/seed, equivalent 36 gai/ha): 2%
% reduction of corn damage 22 d after infestation ([1]; Seed treatment 1.3 mg ai/seed, equivalent 72 gai/ha): 6%
% reduction of corn damage 22 d after infestation ([1]; Seed treatment 2.5 mg ai/seed, equivalent 144 gai/ha): 13%
control efficiency after opening the nests in the excavation of the anthills ([2]; 0.2% bait (10 and 12 g)): higher than 84%
control efficiency after opening the nests in the excavation of the anthills ([2]; 0.3% bait (6, 10 and 12 g)): higher than 84%
response rate as a function of the time of intoxication ([2]; first three days after application of bait): 87.5%
ceased activity in leaf cutting by ants ([2]; 0.1% bait (12 g)): 100%
ceased activity in leaf cutting by ants ([2]; 0.2% bait (6, 10 and 12 g)): 100%
ceased activity in leaf cutting by ants ([2]; 0.3% bait (6, 10 and 12 g)): 100%
response rate as a function of the time of intoxication ([2]; seven days after bait application): 100%
average (ground) removal ([2]; twenty-eight days after treatment): less than 5%
Mean % knockdown or mortality (Musca domestica; 0.10% in sugar bait, 1 hour): 0%
Mean % knockdown or mortality (Musca domestica; 0.10% in sugar bait, 3 hours): 57%
Mean % knockdown or mortality (Musca domestica; 0.10% in sugar bait, 24 hours): 100%
Mean % knockdown or mortality (Musca domestica; 1% in sugar bait, 1 hour): 0%
Mean % knockdown or mortality (Musca domestica; 1% in sugar bait, 3 hours): 97%
Mean % knockdown or mortality (Musca domestica; 1% in sugar bait, 24 hours): 100%
mortality (Darkling beetle larvae [3]): 100%
Mean % knockdown or mortality (Darkling beetle larvae [4]; 0.1% in oat flake bait, 1 hour): 0%
Mean % knockdown or mortality (Darkling beetle larvae [4]; [8]): 0%
Mean % knockdown or mortality (Darkling beetle larvae [4]; [9]): 0%
Mean % knockdown or mortality (Darkling beetle larvae [4]; [10]): 3%
Mean % knockdown or mortality (Darkling beetle larvae [4]; [11]): 23%
Mean % knockdown or mortality (Darkling beetle larvae [4]; 1% in oat flake bait, 1 hour): 0%
Mean % knockdown or mortality (Darkling beetle larvae [4]; 1% in oat flake bait, 3 hours): 23%
Mean % knockdown or mortality (Darkling beetle larvae [4]; 1% in oat flake bait, 24 hours): 80%
Mean % knockdown or mortality (Darkling beetle larvae [4]; 1% in oat flake bait, 48 hours): 83%
Mean % knockdown or mortality (Darkling beetle larvae [4]; [12]): 100%
Mean % knockdown or mortality ([5]; 0.10% in filter paper bait, 1 hour): 0%
Mean % knockdown or mortality ([5]; 0.10% in filter paper bait, 3 hours): 0%
Mean % knockdown or mortality ([5]; 0.10% in filter paper bait, 24 hours): 100%
Mean % knockdown or mortality ([5]; 0.10% in filter paper bait, 48 hours): 100%
Mean % knockdown or mortality ([5]; 1% in filter paper bait, 1 hour): 0%
Mean % knockdown or mortality ([5]; 1% in filter paper bait, 3 hours): 7%
Mean % knockdown or mortality ([5]; 1% in filter paper bait, 24 hours): 100%
Mean % knockdown or mortality ([5]; 1% in filter paper bait, 48 hours): 100%
Donor % mortality ([6]; 1% in peanut butter bait, 48 hours): 100%
Recipient % mortality ([6]; 24 hours post introduction): 97%
Recipient % mortality ([6]; 96 hours post introduction): 100%

CC1(C)[C@H](C(=O)O[C@H](C#N)c2cccc(Oc3ccccc3)c2)[C@@H]1/C=C(\Cl)C(F)(F)F [lambdacyhalothrin, Lambdacyhalothrin]
% reduction of corn damage 22 d after infestation ([7]; Foliar spray 22.4 gai/ha): 81%

Spinetoram
% reduction of corn damage 22 d after infestation ([7]; Foliar spray 18 gai/ha): 28%
